The text below walks through data of US20240050428A1 (Cullgen (Shanghai), Inc., priority 2020, published 2024).

Read-outs that look alike come from different tables or passages of the source.

One assay has as its system MV4;11 cells. The assay is described as follows: Cell viability assay (CellTiter-Glo) in MV4;11 cells, alone or with gilteritinib. In kind it is cell-based. To be noted: Homo sapiens, MV4;11 cells, three days, CellTiter-Glo, read-out: MV4. Background: Cellular ATP, detected with luciferase, serves as a proxy for viable cell number.
A further assay relates to MOLM-13 cells. The assay is described as follows: Cell viability assay (CellTiter-Glo) in MOLM-13 cells, alone or with gilteritinib. In kind it is cell-based. To be noted: Homo sapiens, MOLM-13 cells, three days, CellTiter-Glo.
[1] abbreviates: MV4-11, 72 h, compound alone (without gilteritinib), 11 IC50.
Setting [2] is: MV4-11, 72 h, compound with gilteritinib 10 nM, 11 IC50 gilteritinib.
The mark [3] stands for this setting: MOLM-13, 72 h, compound alone (without gilteritinib), read-out: MOLM-13 IC50.
Setting [4] is: MOLM-13, 72 h, compound with gilteritinib 20 nM, read-out: MOLM-13 IC50 gilteritinib.

Regarding `O=C1CCC(N2C(=O)c3ccc(NCCCCCCn4cc(-c5cnc6ccccc6n5)c(C5CC5)n4)cc3C2=O)C(=O)N1` (centres unmarked) [GS-552, 5-((6-(3-Cyclopropyl-4-(quinoxalin-2-yl)-1H-pyrazol-1-yl)hexyl)amino)-2-(2,6-dioxopiperidin-3-yl)isoindoline-1,3-dione], the IC50 was 0.1 to 1 µM with MV4;11 cells (setting [1]), 0.01 to 0.1 µM with MV4;11 cells (setting [2]), 0.1 to 1 µM with MOLM-13 cells (setting [3]) and below 0.01 µM in the assay with MOLM-13 cells (setting [4]).
With `O=C1CCC(N2C(=O)c3ccc(NCCCCCCn4ncc(-c5cnc6ccccc6n5)c4C4CC4)cc3C2=O)C(=O)N1` (centres unmarked) [GS-553, 5-((6-(5-cyclopropyl-4-(quinoxalin-2-yl)-1H-pyrazol-1-yl)hexyl)amino)-2-(2,6-dioxopiperidin-3-yl)isoindoline-1,3-dione], the IC50 is above 1 µM in the assay on MV4;11 cells (setting [1]), 0.01 to 0.1 µM with MV4;11 cells (setting [2]), above 1 µM in the assay on MOLM-13 cells (setting [3]) and 0.01 to 0.1 µM in the assay on MOLM-13 cells (setting [4]).
As to `O=C1CCC(N2C(=O)c3ccc(NCCCCCCn4nc(C(F)(F)F)c(-c5cnc6ccccc6n5)c4C(F)(F)F)cc3C2=O)C(=O)N1` (centres unmarked) [GS-554, 2-(2,6-Dioxopiperidin-3-yl)-5-((6-(4-(quinoxalin-2-yl)-3,5-bis(trifluoromethyl)-1H-pyrazol-1-yl)hexyl)amino)isoindoline-1,3-dione], the IC50 in the assay on MV4;11 cells (setting [1]) was 0.1 to 1 µM; in the assay on MV4;11 cells (setting [2]) it was 0.01 to 0.1 µM; in the assay with MOLM-13 cells (setting [3]) it was above 1 µM; in the assay on MOLM-13 cells (setting [4]), 0.01 to 0.1 µM.
For `O=C1CCC(N2C(=O)c3ccc(NCCCCCCn4cc(-c5cnc6cccc(C(F)(F)F)c6n5)cn4)cc3C2=O)C(=O)N1` (centres unmarked) [GS-555, 2-(2,6-Dioxopiperidin-3-yl)-5-((6-(4-(8-(trifluoromethyl)quinoxalin-2-yl)-1H-pyrazol-1-yl)hexyl)amino)isoindoline-1,3-dione], the IC50 in the assay with MV4;11 cells (setting [1]) is 0.1 to 1 µM; in the assay on MV4;11 cells (setting [2]) it was 0.01 to 0.1 µM; in the assay with MOLM-13 cells (setting [3]), 0.1 to 1 µM; in the assay with MOLM-13 cells (setting [4]) it was below 0.01 µM.
Consider `O=C1CCC(N2C(=O)c3ccc(NC4CC(CCCn5cc(-c6cnc7ccccc7n6)cn5)C4)cc3C2=O)C(=O)N1` (centres unmarked) [GS-556], for which the IC50 in the assay on MV4;11 cells (setting [1]), in the assay with MV4;11 cells (setting [2]), in the assay on MOLM-13 cells (setting [3]) and with MOLM-13 cells (setting [4]) was above 1 µM throughout.
`O=C1CCC(N2C(=O)c3ccc(NCCCCCCn4ncc(-c5cnc6ccccc6n5)c4C(F)F)cc3C2=O)C(=O)N1` (centres unmarked) [GS-557, 5-((6-(5-(Difluoromethyl)-4-(quinoxalin-2-yl)-1H-pyrazol-1-yl)hexyl)amino)-2-(2,6-dioxopiperidin-3-yl)isoindoline-1,3-dione]: the IC50 is 0.01 to 0.1 µM with MV4;11 cells (setting [1]), below 0.01 µM in the assay with MV4;11 cells (setting [2]), 0.01 to 0.1 µM in the assay with MOLM-13 cells (setting [3]) and below 0.01 µM in the assay with MOLM-13 cells (setting [4]).
Turning to `O=C1CCC(N2C(=O)c3ccc(NCCC4CC(Cn5cc(-c6cnc7ccccc7n6)cn5)C4)cc3C2=O)C(=O)N1` (centres unmarked) [GS-558, 2-(2,6-Dioxopiperidin-3-yl)-5-((2-(3-((4-(quinoxalin-2-yl)-1H-pyrazol-1-yl)methyl)cyclobutyl)ethyl)amino)isoindoline-1,3-dione], the IC50 was 0.1 to 1 µM in the assay on MV4;11 cells (72 h, compound alone (without gilteritinib), 11 IC50); 0.1 to 1 µM in the assay with MV4;11 cells (72 h, compound with gilteritinib 10 nM, 11 IC50 gilteritinib); above 1 µM with MOLM-13 cells (72 h, compound alone (without gilteritinib), read-out: MOLM-13 IC50); 0.01 to 0.1 µM in the assay on MOLM-13 cells (72 h, compound with gilteritinib 20 nM, read-out: MOLM-13 IC50 gilteritinib).
In the case of `O=C1CCC(N2C(=O)c3ccc(NCCCCCCn4cc(-c5cnc6ccc(C(F)(F)F)cc6n5)cn4)cc3C2=O)C(=O)N1` (centres unmarked) [GS-559], the IC50 was 0.01 to 0.1 µM in the assay on MV4;11 cells (setting [1]), 0.01 to 0.1 µM in the assay on MV4;11 cells (setting [2]), 0.01 to 0.1 µM with MOLM-13 cells (setting [3]) and below 0.01 µM with MOLM-13 cells (setting [4]).
`O=C1CCC(N2C(=O)c3ccc(NCCC4CC(n5cc(-c6cnc7ccccc7n6)cn5)C4)cc3C2=O)C(=O)N1` (centres unmarked) [GS-561, 2-(2,6-Dioxopiperidin-3-yl)-5-((2-(3-(4-(quinoxalin-2-yl)-1H-pyrazol-1-yl)cyclobutyl)ethyl)amino)isoindoline-1,3-dione]: the IC50 is above 1 µM in the assay on MV4;11 cells (setting [1]), 0.1 to 1 µM in the assay on MV4;11 cells (setting [2]), above 1 µM with MOLM-13 cells (setting [3]) and 0.01 to 0.1 µM with MOLM-13 cells (setting [4]).
In the case of `O=C1CCC(N2C(=O)c3ccc(NCCCCCCn4cc(-c5cnc6ccc(C7CC7)cc6n5)cn4)cc3C2=O)C(=O)N1` (centres unmarked) [GS-562, 5-((6-(4-(7-Cyclopropylquinoxalin-2-yl)-1H-pyrazol-1-yl)hexyl)amino)-2-(2,6-dioxopiperidin-3-yl)isoindoline-1,3-dione], the IC50 in the assay on MV4;11 cells (setting [1]) was 0.01 to 0.1 µM; in the assay with MV4;11 cells (setting [2]) it was 0.01 to 0.1 µM; with MOLM-13 cells (setting [3]), 0.01 to 0.1 µM; in the assay on MOLM-13 cells (setting [4]) it was below 0.01 µM.
Regarding `O=C1CCC(N2C(=O)c3ccc(NCCC4CC5(C4)CC(n4cc(-c6cnc7ccccc7n6)cn4)C5)cc3C2=O)C(=O)N1` (centres unmarked) [GS-564, 2-(2,6-Dioxopiperidin-3-yl)-5-((2-(6-(4-(quinoxalin-2-yl)-1H-pyrazol-1-yl)spiro[3.3]heptan-2-yl)ethyl)amino)isoindoline-1,3-dione], the IC50 is 0.01 to 0.1 µM in the assay with MV4;11 cells (setting [1]), below 0.01 µM with MV4;11 cells (setting [2]), 0.01 to 0.1 µM in the assay with MOLM-13 cells (setting [3]) and below 0.01 µM in the assay on MOLM-13 cells (setting [4]).
`O=C1CCC(N2C(=O)c3cccc(NCCCC4CC(n5cc(-c6cnc7ccccc7n6)cn5)C4)c3C2=O)C(=O)N1` (centres unmarked) [GS-565, 2-(2,6-Dioxopiperidin-3-yl)-4-((3-(3-(4-(quinoxalin-2-yl)-1-pyrazol-1-yl)cyclobutyl)propyl)amino)isoindoline-1,3-dione]: the IC50 was above 1 µM in the assay on MV4;11 cells (setting [1]), 0.1 to 1 µM in the assay on MV4;11 cells (setting [2]), above 1 µM in the assay with MOLM-13 cells (setting [3]) and 0.01 to 0.1 µM with MOLM-13 cells (setting [4]).
In the case of `O=C1CCC(N2C(=O)c3ccc(NCCCC4CC(n5cc(-c6cnc7ccc(CC8CNC8)cc7n6)cn5)C4)cc3C2=O)C(=O)N1` (centres unmarked) [GS-566, 5-((3-(3-(4-(7-(Azetidin-3-ylmethyl)quinoxalin-2-yl)-1H-pyrazol-1-yl)cyclobutyl)propyl)amino)-2-(2,6-dioxopiperidin-3-yl)isoindoline-1,3-dione], the IC50 in the assay on MV4;11 cells (setting [1]) is above 1 µM; in the assay on MV4;11 cells (setting [2]) it was 0.1 to 1 µM; in the assay with MOLM-13 cells (setting [3]), above 1 µM; with MOLM-13 cells (setting [4]), 0.1 to 1 µM.
Consider `O=C1CCC(N2C(=O)c3ccc(NCCCC4CC(n5cc(-c6cnc7ccc(NC8COC8)cc7n6)cn5)C4)cc3C2=O)C(=O)N1` (centres unmarked) [GS-567, 2-(2,6-Dioxopiperidin-3-yl)-5-((3-(3-(4-(7-(oxetan-3-ylamino)quinoxalin-2-yl)-1H-pyrazol-1-yl)cyclobutyl)propyl)amino)isoindoline-1,3-dione], for which the IC50 was 0.1 to 1 µM in the assay with MV4;11 cells (setting [1]), 0.01 to 0.1 µM with MV4;11 cells (setting [2]), 0.1 to 1 µM with MOLM-13 cells (setting [3]) and below 0.01 µM with MOLM-13 cells (setting [4]).
For the molecule `O=C1CCC(N2C(=O)c3ccc(NCCC[C@H]4C[C@H](n5cc(-c6cnc7ccccc7n6)c(C6CC6)n5)C4)cc3C2=O)C(=O)N1` (stereo partly drawn) [GS-568, 5-((3-((trans)-3-(3-Cyclopropyl-4-(quinoxalin-2-yl)-1H-pyrazol-1-yl)cyclobutyl)propyl)amino)-2-(2,6-dioxopiperidin-3-yl)isoindoline-1,3-dione], the IC50 in the assay on MV4;11 cells (setting [1]) is 0.01 to 0.1 µM; in the assay with MV4;11 cells (setting [2]), below 0.01 µM; in the assay on MOLM-13 cells (setting [3]), 0.01 to 0.1 µM; in the assay on MOLM-13 cells (setting [4]), below 0.01 µM.
As to `O=C1CCC(N2C(=O)c3ccc(NCCCCCCn4cc(-c5cnc6ccc(N7CCOCC7)cc6n5)c(C5CC5)n4)cc3C2=O)C(=O)N1` (centres unmarked) [GS-569, 5-((6-(3-Cyclopropyl-4-(7-morpholinoquinoxalin-2-yl)-1H-pyrazol-1-yl)hexyl)amino)-2-(2,6-dioxopiperidin-3-yl)isoindoline-1,3-dione], the IC50 in the assay with MV4;11 cells (setting [1]), with MV4;11 cells (setting [2]), in the assay with MOLM-13 cells (setting [3]) and in the assay on MOLM-13 cells (setting [4]) was below 0.01 µM each time.
For the molecule `CN1CCN(c2ccc3ncc(-c4cn(CCCCCCNc5ccc6c(c5)C(=O)N(C5CCC(=O)NC5=O)C6=O)nc4C4CC4)nc3c2)CC1` (centres unmarked) [GS-570, 5-((6-(3-Cyclopropyl-4-(7-(4-methylpiperazin-1-yl)quinoxalin-2-yl)-1H-pyrazol-1-yl)hexyl)amino)-2-(2,6-dioxopiperidin-3-yl)isoindoline-1,3-dione], the IC50 was 0.01 to 0.1 µM in the assay with MV4;11 cells (setting [1]), below 0.01 µM in the assay with MV4;11 cells (setting [2]), 0.1 to 1 µM in the assay on MOLM-13 cells (setting [3]) and below 0.01 µM in the assay with MOLM-13 cells (setting [4]).
`O=C1CCC(N2C(=O)c3ccc(NCCCCCCn4cc(-c5cnc6ccc(C7CCOCC7)cc6n5)c(C5CC5)n4)cc3C2=O)C(=O)N1` (centres unmarked) [GS-571, 5-((6-(3-Cyclopropyl-4-(7-(tetrahydro-2H-pyran-4-yl)quinoxalin-2-yl)-1H-pyrazol-1-yl)hexyl)amino)-2-(2,6-dioxopiperidin-3-yl)isoindoline-1,3-dione]: the IC50 in the assay with MV4;11 cells (setting [1]) was below 0.01 µM; in the assay on MV4;11 cells (setting [2]), below 0.01 µM; in the assay on MOLM-13 cells (setting [3]), 0.01 to 0.1 µM; with MOLM-13 cells (setting [4]) it was below 0.01 µM.
With `CN1CCC(c2ccc3ncc(-c4cn(CCCCCCNc5ccc6c(c5)C(=O)N(C5CCC(=O)NC5=O)C6=O)nc4C4CC4)nc3c2)CC1` (centres unmarked) [GS-572, 5-((6-(3-Cyclopropyl-4-(7-(1-methylpiperidin-4-yl)quinoxalin-2-yl)-1H-pyrazol-1-yl)hexyl)amino)-2-(2,6-dioxopiperidin-3-yl)isoindoline-1,3-dione], the IC50 with MV4;11 cells (setting [1]) is 0.01 to 0.1 µM; in the assay on MV4;11 cells (setting [2]), below 0.01 µM; with MOLM-13 cells (setting [3]) it was 0.1 to 1 µM; in the assay with MOLM-13 cells (setting [4]), below 0.01 µM.
For `C[C@H]1CN(c2ccc3ncc(-c4cnn([C@H]5C[C@H](CCCNc6ccc7c(c6)C(=O)N(C6CCC(=O)NC6=O)C7=O)C5)c4)nc3c2)CCN1C` (stereo partly drawn) [GS-575, 5-((3-(trans-3-(4-(7-((S)-3,4-Dimethylpiperazin-1-yl)quinoxalin-2-yl)-1H-pyrazol-1-yl)cyclobutyl)propyl)amino)-2-(2,6-dioxopiperidin-3-yl)isoindoline-1,3-dione], the IC50 with MV4;11 cells (setting [1]) was 0.01 to 0.1 µM; in the assay on MV4;11 cells (setting [2]), below 0.01 µM; in the assay with MOLM-13 cells (setting [3]) it was 0.01 to 0.1 µM; in the assay on MOLM-13 cells (setting [4]), below 0.01 µM.
